We go through two compounds from patent US20070275911A1, “Targeted Drug-Formaldehyde Conjugates and Methods of Making and Using the Same” (priority 2003, published 2007).

SMILES strings stand for the structures. Where “and” joins values, the source holds several entries; their conditions need not be identical. Equal values may be shown once.

For series [1] the following is noted: cell line not stated; cited from earlier work.
Series [2] can be described thus: Hydrolysis and stability of DOX-TEG-TAM. The class given is physicochemical. How it is done:
Results: Hydrolysis and stability. A standard solution of DOX-TEG-TAM (11c) in dimethylsulfoxide (DMSO) containing 1% v/v acetic acid (AcOH) was diluted 1:100 in two different buffers: lysis buffer (pH 7.4, 10 mM Tris, 1.5 mM EDTA, 10 mM Na2MoO4) used for binding experiments or TE buffer (pH 7.6, 10 MM Tris, 1 mM EDTA). Samples incubated at 37° C. and 4° C. were monitored by HPLC to detect the loss of intact targeted drug and the formation of doxorubicin. The hydrolysis data was fit using first-order reaction kinetics to provide first-order rate constants; the hydrolysis half-life was then calculated using t1/2=ln2/k.
The DOX-TEG-TAM was diluted 1:100 in either pH 7.6 TE buffer (10 mM tris, 1 mM EDTA buffer) or pH 7.4 lysis buffer (10% v/v glycerol, 10 mM Tris, 1.5 mM EDTA, 10 mM Na2MoO4). A sample of each buffer was kept at 37° C. and 4° C. and monitored by HPLC using Method #2 (described above) to track the loss of DOX-TEG-TAM and the subsequent formation of doxorubicin. The area-under-the-curve (AUC) was used to calculate the percentage of intact material versus time. The hydrolysis data were fit to first-order kinetics using Regression (Blackwell Scientific Publishing, London) software. The reaction rate constants were 0.012±0.0007 min^−1 (pH 7.6) and 0.0092±0.0003 min^−1 (pH 7.4) at 37° C.; 0.0058±0.0005 h^−1 (pH 7.6) and 0.0038±0.0003 h^−1 ([…]) at 4° C. The half-life for hydrolysis was then calculated from the rate constants using t1/2=ln2/k.

A further series addresses T1, estrogen receptor (Homo sapiens, UniProt P03372).
T1 construct: endogenous in cells; host or cells: MCF-7 cells (ATCC); 225,000 g supernatant of sonicated lysate
Briefly: Estrogen receptor competitive binding assay (3H-E2, MCF-7 cell lysate).

Another series deals with MDA-MB-231 cells. Briefly: Uptake and release by flow cytometry. The class given is cell-based, human. The text has this:
Additionally, uptake and release data were obtained for DOX, DOXSF, and DOX-TEG-TAM in estrogen receptor-negative MDA-MB-435 and MDA-MB-231 cells. In both cell lines DOX-TEG-TAM was also taken up to a much greater extent than DOX and DOXSF. In MDA-MB-435 cells DOX-TEG-TAM was taken up 3-fold and 5-fold more than DOXSF and DOX, respectively. In MDA-MB-23 1 cells DOX-TEG-TAM was taken up 2-fold and 6-fold more than DOXSF and DOX, respectively.
(§1) Uptake and release of DOX, DOXSF, and DOX-TEG-TAM: The uptake and release of DOX-TEG-TAM in breast cancer cells relative to DOX and untargeted DOXSF was performed as described with modifications. Breast cancer cells in log phase growth were dissociated with trypsin-EDTA, counted, resuspended in media at 1.5×10^5 cells/mL, and plated into six well plates (450,000 cells/well) and allowed to adhere overnight. The cells were treated with 0.5 μM DOX, DOXSF, or DOX-TEG-TAM for various amounts of time (20 min, 40 min, and 60 min). Drug treatment was accomplished by addition of 30 μL of 100× drug solution (50 μM) to 3 mL of media which was mixed and immediately added to the cells. For each time point, the media was removed, cells were trypsinized, and trypsinization was quenched with 3 mL phenol red-free RPMI 1640 media (no serum) at 4° C. Cells were pelleted by centrifugation at 300 g for 5 min at 10° C. The supernatant was decanted and the cells were re-suspended in 1 mL serum- and phenol red-free RPMI 1640 media and placed on ice.
For drug retention samples, the cells were treated for 1 h with 0.5 μM DOX, DOXSF, or DOX-TEG-TAM. Following drug treatment, the media was removed and replaced with 3 mL fresh, 37° C., full (containing serum and phenol red indicator) cell media and the cells were incubated for various times (0.5 h, 1 h, 3 h, and 6 h). Following the allotted release times, the cells were prepared as described above. Drug treatment was performed such that all cell samples would be prepared within 2 h.
(§2) The extent of drug uptake and retention was measured by flow cytometry. Cells were analyzed with excitation at 488 nm (15 mW Ar ion laser), with emission monitored between 570 and 600 nm. Instrument settings were optimized for each cell line and held constant for all experiments; 10,000 cells were analyzed for anthracycline fluorescence. The data are presented as the mean fluorescence for each condition with the background, drug-free cell fluorescence subtracted.

In the next series the test system is Rtx-6 cells. The experiment in a line: Uptake and estradiol competition by flow cytometry. The class given is cell-based. How it is done:
The uptake and release in Rtx-6 cells were also investigated. Rtx-6 cells were treated with DOX, DOXSF, or DOX-TEG-TAM as described above to determine both the uptake and the release of drug following a 1 h treatment. DOX-TEG-TAM was taken up to a greater extent than DOX (>3-fold) and DOXSF (>2-fold). The enhanced uptake relative to DOX and DOXSF could be attributed to the presence of ER and the lipophilicity of DOX-TEG-TAM. The uptake of DOX-TEG-TAM in Rtx-6 cells is perhaps best compared to the uptake in the parent MCF-7 cell line. DOX-TEG-TAM was taken up to a greater extent in MCF-7 cells (25 RFU) relative to Rtx-6 cells (14 RFU). One possible explanation for this difference is the presence of both AEBS and ER in MCF-7 cells versus only ER in Rtx-6 cells. […] No further inhibition occurs at higher concentrations, possibly because of non-specific binding of DOX-TEG-TAM at hydrophobic sites in Rtx-6 cells.
as §1, §2
The cell samples were prepared and analyzed by flow cytometry as described above.
(In general: A flow cytometer gives signals particle by particle.)

T1 sequence (P03372 whole entry): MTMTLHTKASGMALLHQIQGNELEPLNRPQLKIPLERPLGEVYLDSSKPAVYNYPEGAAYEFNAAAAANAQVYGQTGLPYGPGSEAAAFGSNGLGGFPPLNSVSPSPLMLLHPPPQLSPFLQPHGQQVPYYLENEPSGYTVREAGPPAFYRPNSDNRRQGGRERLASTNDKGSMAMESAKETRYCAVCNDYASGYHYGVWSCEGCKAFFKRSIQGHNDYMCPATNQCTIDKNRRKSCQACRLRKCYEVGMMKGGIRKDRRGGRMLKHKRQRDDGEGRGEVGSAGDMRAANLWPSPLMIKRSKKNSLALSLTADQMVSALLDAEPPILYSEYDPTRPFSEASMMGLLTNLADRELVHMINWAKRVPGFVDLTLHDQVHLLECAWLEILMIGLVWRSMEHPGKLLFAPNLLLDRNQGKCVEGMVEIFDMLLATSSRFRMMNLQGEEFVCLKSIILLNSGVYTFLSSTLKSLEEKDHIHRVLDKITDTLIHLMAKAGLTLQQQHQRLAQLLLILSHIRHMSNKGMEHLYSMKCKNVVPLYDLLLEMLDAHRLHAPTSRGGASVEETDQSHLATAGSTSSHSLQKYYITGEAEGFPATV

Take `COc1cccc2c1C(=O)c1c(O)c3c(c(O)c1C2=O)C[C@@](O)(C(=O)CO)C[C@@H]3O[C@H]1C[C@H](NCNC(=O)c2ccccc2O)[C@H](O)[C@H](C)O1` [doxsaliform, N-(2-Hydroxybenzamido-methyl)-doxorubicin]: the IC50 – broadly, the midpoint of a concentration-inhibition curve – in series [1] was 60 nM and 50 nM.

As to `CC/C(=C(/c1ccc(O)cc1)c1ccc(OCCN(C)CCOCCOCCO/N=C/c2ccc(O)c(C(=O)NCN[C@H]3C[C@H](O[C@H]4C[C@](O)(C(=O)CO)Cc5c(O)c6c(c(O)c54)C(=O)c4c(OC)cccc4C6=O)O[C@@H](C)[C@H]3O)c2)cc1)c1ccccc1` [11c, E/Z-N-(2-Hydroxy-5-{[2-(2-{2-[(2-{4-[1-(4-hydroxy-phenyl)-2-phenyl-but-1-enyl]-phenoxy}-ethyl)-methyl-amino]-ethoxy}-ethoxy)-ethoxyimino]-methyl}-benzamide)-doxorubicin], the reaction rate constant in series [2] (pH 7.4, 37° C.) worked out at 0.0092 ± 0.0003 min⁻¹; in series [2] (pH 7.5, 4° C.), 6.33e-05 ± 5e-06 min⁻¹; in series [2] (pH 7.6, 4° C.), 9.67e-05 ± 8.3e-06 min⁻¹; in series [2] (pH 7.6, 37° C.), 0.012 ± 0.0007 min⁻¹. Moreover, at estrogen receptor, the “estrogen receptor binding affinity retained relative to targeting group alone” value was found to be 2.5%. In addition, the “RBA^OHT” value at estrogen receptor (relative to E/Z-4-OHT = 100) is on record as 2.5. Also, in the series with MDA-MB-231 cells (MDA-MB-231), the “fold uptake more than DOX” value is recorded as 6 fold. Further, in the series on MDA-MB-231 cells (MDA-MB-231), the “fold uptake more than DOXSF” value was 2 fold. Also, the “uptake relative to MDA-MB-435 cells” value in the series on MDA-MB-231 cells (MDA-MB-231, 1 h, 500 nM) is “about 25%”. Moreover, in the series on MDA-MB-231 cells (MDA-MB-231, after 1 h treatment with 500 nM), the “fluorophore retention vs DOXSF or DOX” value is listed as “retained to a greater extent”. Also, the “fold uptake greater than DOX” value in the series on Rtx-6 cells (Rtx-6) was greater than 3 fold. Further, in the series with Rtx-6 cells (Rtx-6), the “fold uptake greater than DOXSF” value is reported as greater than 2 fold. The “inhibition of uptake by estradiol” value with Rtx-6 cells (Rtx-6, 0.5 μM drug, 20 nM estradiol) is 70%. The “drug uptake (DOX fluorophore)” value with Rtx-6 cells (Rtx-6, 1 h treatment) is given as 14 RFU.
